Assay [1] deals with Pseudomonas aeruginosa-derived endotoxin-induced keratitis. As to the kind of experiment: Effect on endotoxin-induced keratitis (rabbit keratitis model, slit lamp scoring). The class given is in vivo. On the procedure: (§1) The effect of Compound A when given as eye drops was investigated in a rabbit keratitis model using an endotoxin derived from Pseudomonas aeruginosa detected frequently in an ophthalmic infection as well as in a rabbit corneal alkaline erosion model.
(§2) Male Japanese albino rabbits each weighing about 2 to 2.5 kg purchased from FUKUZAKI rabbit-raising association were used. Each animal was maintained at a temperature of 24±4° C. and a humidity of 55±15%.
(§3) Compound A was given as a 1.0% Compound A eye drop formulation prepared by suspending Compound A in a formulation base (0.1% NaH2PO4, 0.1% polysorbate 80 and 0.9% NaCl, pH 5.0). As a positive control, a 0.1% betamethasone eye drop formulation (Rinderon™ solution, Sionogi) was used. In a control group, the formulation base was given.
16 Male Japanese albino rabbits each weighing 2 to 2.5 kg were used. The rabbits were divided into four groups each having 4 animals, which were anesthetized systemically by an intramuscular administration each of 1 ml/kg of an equal volume mixture of 5% ketamine hydrochloride and 2% xylazine hydrochloride. Each 10 μl of a 1% solution of Pseudomonas aeruginosa-derived endotoxin in physiological saline was infused into each corneal stroma of a rabbit. An anterior part of an eye was observed using a slit lamp every 5 days over a period from the day after the endotoxin infusion through the 30th day, and examined for the corneal opacity, the corneal ulcer and the vascularization, which were scored in accordance with the criteria shown in Table 1. Each test substance was started to be instilled immediately after the endotoxin infusion, and then given 4 times a day in the volume of 20 μl every 2 hours.
(§4) Rabbit Keratitis Scoring Criteria
(§5) Corneal opacity^remarks 1)
(§6) * Vascularization^remarks 1)
(§7) 2: ⅔ or more of corneal circumference Remarks 1) Each as score A x score B

Assay [2] relates to alkaline erosive keratitis. As to the kind of experiment: Effects on alkaline erosive keratitis (rabbit corneal alkaline erosion model, slit lamp scoring). The class given is in vivo. The protocol:
as §1, §2, §3
16 Male Japanese albino rabbits each weighing 2 to 2.5 kg were used. The rabbits were divided into four groups each having 4 animals, which were anesthetized systemically by an intramuscular administration each of 1 ml/kg of an equal volume mixture of 5% ketamine hydrochloride and 2% xylazine hydrochloride and also locally by an instillation of oxybuprocaine hydrochloride. A filter paper whose diameter was 10 mm and which had been immersed in 2N NaOH was brought into contact with the center of the right cornea of a rabbit for 1 minute to establish an alkaline erosion, and then the eye was rinsed immediately with 10 mL or more of physiological saline. The depth of the corneal ulcer and the vascularization were observed using a slit lamp every 5 days over a period from 5 days after the alkaline erosion through the 30th day, and scored in accordance with the criteria shown in Table 1. Each test substance was started to be instilled immediately after the alkaline erosion, and then given 4 times a day in the volume of 20 μl every 2 hours.
as §4, §5, §6, §7

Assay [3] relates to Pseudomonas aeruginosa strain No. ho-134 corneal ulcer. As to the kind of experiment: Effects on pyocyanic corneal ulcer (inoculation of Pseudomonas aeruginosa into corneal stroma, corneal ulcer score). The class given is in vivo, rabbit. As to conditions: 50 μl four times a day. The protocol: Male Japanese albino rabbits each weighing about 2 kg purchased from KITAYAMA LABE S CO., LTD. were used. Each animal was maintained at a temperature of 23±3° C. and a humidity of 55±10%.
Compound A was given as a 1.0% Compound A eye drop formulation prepared by suspending Compound A in a formulation base (0.1% sodium acetate, 0.1% polysorbate 80 and 0.9% NaCl, pH 5.0). A 0.3% lomefloxacin (LFLX) hydrochloride was used as an. is antibacterial agent, and physiological saline *was used as a control.
After instilling 0.4% oxybuprocaine hydrochloride for a local anesthesia, a nictitating membrane was excised.
A causative microorganism used was a clinical isolate Pseudomonas aeruginosa strain No. ho-134. A rabbit was anesthetized systemically with 5% ketamine hydrochloride and 2% xylazine hydrochloride (equal volume mixture), and then inoculated by an infusion of 30 μl of a 3.9×10^4 CFU/ml cell suspension (1.17×10^3 CFU/cornea) using a 100 μl microsyringe fitted with a 30G needle into one corneal stroma of a rabbit.
An animal which had received an infusion of the cell suspension into the corneal stroma and whose inoculation was surely successful was grouped into one of [1] physiological saline instillation group (control, n=6) and [2]1.0% Compound A instillation group (Compound A group, n=6) as groups whose therapy was started immediately after the inoculation, and [3]1.0% Compound A instillation group (late Compound A group, n=5), [4]0.3% LFLX instillation group (LFLX group, n=6) and [5]1.0% Compound A instillation—0.3% LFLX instillation combination group (Compound A—LFLX combination group, n=6) as groups whose therapy was started 1 day after the inoculation (after onset of corneal ulcer), and 50 μl of each substance was given four times a day immediately after the inoculation or 1 day after the inoculation (after onset of corneal ulcer). […]
Each animal was examined for the corneal ulcer every 24 hours after the inoculation and scored in accordance with the rabbit corneal lesion scoring criteria (Barletta J. P. et al., Invest Ophthalmol Vis Sic 37:20-28, 1996) shown in Table 2. […]

[4] abbreviates: instillation started 1 day after the inoculation (after onset of corneal ulcer), vs physiological saline (FIG. 9).

3 compounds from patent publication US6624193B1, “Preventive and therapeutic agents for eye diseases” (Ono Pharmaceutical Co., Ltd., priority 1999, dated 2003) can be followed below.

Structures are written as SMILES. Counter-ions that a name gives are not always drawn.

Regarding `C[C@H]1C[C@H]2[C@@H]3CCC4=CC(=O)C=C[C@]4(C)[C@@]3(F)[C@@H](O)C[C@]2(C)[C@@]1(O)C(=O)COP(=O)(O)O` [betamethasone phosphate, reference compound], the “onset of the keratitis” value in assay [1] (over the observation period (5 to 30 days), 0.1% eye drop, 4 times a day, positive control) is “inhibited almost completely”. Moreover, in assay [2] (15th day after corneal alkaline exposure, 0.1% eye drop, 4 times a day, positive control), the effect on vascularization result was “significant inhibitory effect”.

Take `CC(C)(C)C(=O)Oc1ccc(S(=O)(=O)Nc2ccccc2C(=O)NCC(=O)[O-])cc1.O.O.O.O.[Na+]` [Compound A, N-[o-(p-pivaloyloxybenzenesulfonyl-amino)benzoyl]glycine monosodium salt tetrahydrate]: the “effect on corneal opacity” value was “inhibitory effects were observed” in assay [1] (5 to 30 days after endotoxin infusion, 1.0% eye drop, 4 times a day, vs control group (FIG. 1)) and “no effects were noted” in assay [2] (5 to 30 days after corneal alkaline exposure, 1.0% eye drop, 4 times a day (FIG. 5)). For the same compound, the “effect on corneal ulcer” value is “inhibitory effects were observed” in assay [1] (5 to 30 days after endotoxin infusion, 1.0% eye drop, 4 times a day, vs control group (FIG. 2)) and “significant inhibitory effect” in assay [2] (20th day after corneal alkaline exposure, 1.0% eye drop, 4 times a day (FIG. 6)). Besides, the effect on vascularization entry in assay [1] (5 to 30 days after endotoxin infusion, 1.0% eye drop, 4 times a day, vs control group (FIG. 3)) is given as “inhibitory effects were observed”; in assay [2] (5 to 30 days after corneal alkaline exposure, 1.0% eye drop, 4 times a day (FIG. 7)), “no effects were noted”. Moreover, the “% inhibition of total keratitis score compared with the control group” value in assay [1] (15th day after endotoxin infusion, 1.0% eye drop, 20 μl 4 times a day, statistically significant difference (FIG. 4)) amounted to 59.4%. The corneal ulcer formation entry in assay [3] (setting [4]) is “corneal ulcer formation was started to be inhibited 3 days after the inoculation”; in assay [3] (instillation started immediately after the inoculation, vs physiological saline, statistically significant difference (FIG. 8)), “corneal ulcer formation was started to be inhibited 3 days after the inoculation”.

As for `CCn1cc(C(=O)O)c(=O)c2cc(F)c(N3CCNC(C)C3)c(F)c21` (stereo not drawn) [LFLX, lomefloxacin (LFLX) hydrochloride, reference compound], the corneal ulcer formation result in assay [3] (setting [4]) is “no inhibition of the corneal ulcer formation”.
